Earlier results, collected in patent US10123974B2, “Sustained release formulation of a non-steroidal anti-inflammatory drug” (PACIRA PHARMACEUTICALS, INC., priority 2010, dated 2018).

Conditions: chronic 100 mg/day systemic dosing

synovial fluid levels: ≤ 200 ng/mL
Compound: O=C(O)Cc1ccccc1Nc1c(Cl)cccc1Cl [diclofenac]
